For one experiment, the target named is Caspase-9 (Homo sapiens, UniProt P55211). Description: caspase-9 enzyme inhibition, dose response, selectivity assay for caspase-6 inhibitor project, biochemical, fluorescence, plate reader, cherry-picked samples (AID 743293).
Experiment [1] concerns the target T1, Corticotropin-releasing factor receptor 2/Corticotropin-releasing factor-binding protein (Homo sapiens, UniProt P24387+Q13324).
T1 sequence (Q13324 whole entry): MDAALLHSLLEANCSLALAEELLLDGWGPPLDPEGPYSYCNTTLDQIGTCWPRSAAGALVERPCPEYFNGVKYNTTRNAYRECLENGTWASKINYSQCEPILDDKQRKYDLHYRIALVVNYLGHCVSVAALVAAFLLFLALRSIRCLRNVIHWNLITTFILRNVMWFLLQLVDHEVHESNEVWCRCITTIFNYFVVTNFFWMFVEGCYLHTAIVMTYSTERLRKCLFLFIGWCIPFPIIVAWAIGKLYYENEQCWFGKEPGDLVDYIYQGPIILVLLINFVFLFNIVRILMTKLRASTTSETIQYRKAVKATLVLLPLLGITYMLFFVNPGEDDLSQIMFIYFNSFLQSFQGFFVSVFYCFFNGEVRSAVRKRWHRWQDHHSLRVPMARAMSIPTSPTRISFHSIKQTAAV
T1 sequence (P24387 whole entry): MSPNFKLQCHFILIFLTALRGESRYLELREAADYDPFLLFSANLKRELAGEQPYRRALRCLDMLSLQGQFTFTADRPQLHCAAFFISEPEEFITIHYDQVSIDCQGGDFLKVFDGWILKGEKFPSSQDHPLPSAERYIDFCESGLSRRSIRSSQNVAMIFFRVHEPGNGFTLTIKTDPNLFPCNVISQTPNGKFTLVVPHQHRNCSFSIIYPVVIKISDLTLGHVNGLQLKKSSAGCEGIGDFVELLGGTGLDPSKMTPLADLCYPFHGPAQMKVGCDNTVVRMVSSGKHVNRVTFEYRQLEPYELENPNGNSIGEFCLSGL
The experiment can be described thus: activators of CRF receptor 2 with binding protein – uHTS hits, confirmation (AID 602473). It counts as functional. As to conditions: read-out: EC50_Mean.

The target in experiment [2] is T2, Sentrin-specific protease 7 (Homo sapiens, UniProt Q9BQF6).
T2 sequence (Q9BQF6 whole entry): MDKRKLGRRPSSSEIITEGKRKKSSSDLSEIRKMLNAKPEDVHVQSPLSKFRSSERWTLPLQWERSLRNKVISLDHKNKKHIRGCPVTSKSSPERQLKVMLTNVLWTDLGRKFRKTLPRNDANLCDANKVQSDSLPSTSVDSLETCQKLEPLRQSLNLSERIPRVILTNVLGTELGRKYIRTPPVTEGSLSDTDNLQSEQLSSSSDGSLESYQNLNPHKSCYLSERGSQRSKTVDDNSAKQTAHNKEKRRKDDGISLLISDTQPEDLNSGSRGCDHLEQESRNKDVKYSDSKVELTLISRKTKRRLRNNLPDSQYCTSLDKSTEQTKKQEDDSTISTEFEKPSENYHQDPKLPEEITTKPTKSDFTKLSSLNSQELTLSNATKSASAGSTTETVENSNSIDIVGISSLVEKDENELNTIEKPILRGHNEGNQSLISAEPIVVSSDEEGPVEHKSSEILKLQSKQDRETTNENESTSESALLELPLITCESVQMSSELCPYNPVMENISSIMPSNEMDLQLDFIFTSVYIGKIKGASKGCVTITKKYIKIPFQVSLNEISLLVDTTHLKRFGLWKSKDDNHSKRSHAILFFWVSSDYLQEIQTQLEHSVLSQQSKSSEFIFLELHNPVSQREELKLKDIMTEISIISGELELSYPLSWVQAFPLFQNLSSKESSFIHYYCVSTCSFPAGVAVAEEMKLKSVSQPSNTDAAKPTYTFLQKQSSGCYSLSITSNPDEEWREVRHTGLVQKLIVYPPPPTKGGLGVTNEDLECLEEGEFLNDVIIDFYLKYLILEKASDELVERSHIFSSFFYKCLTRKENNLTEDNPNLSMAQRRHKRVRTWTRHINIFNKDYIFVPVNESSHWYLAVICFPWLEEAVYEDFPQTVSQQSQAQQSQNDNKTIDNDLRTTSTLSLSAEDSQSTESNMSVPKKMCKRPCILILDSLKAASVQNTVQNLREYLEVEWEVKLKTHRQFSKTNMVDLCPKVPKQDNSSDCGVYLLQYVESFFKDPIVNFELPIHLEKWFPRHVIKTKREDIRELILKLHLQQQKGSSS
Description: SENP7 protease inhibitors, SAR follow-up, biochemical, luminescence (AID 504497). It counts as functional.

The target in experiment [3] is T3, Sentrin-specific protease 8 (Homo sapiens, UniProt Q96LD8).
T3 sequence (Q96LD8 whole entry): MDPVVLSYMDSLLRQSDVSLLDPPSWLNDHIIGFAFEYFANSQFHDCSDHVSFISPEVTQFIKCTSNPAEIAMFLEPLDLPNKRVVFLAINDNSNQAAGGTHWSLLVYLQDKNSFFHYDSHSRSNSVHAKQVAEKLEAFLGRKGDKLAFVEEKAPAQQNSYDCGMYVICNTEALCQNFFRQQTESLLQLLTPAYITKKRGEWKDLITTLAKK
The experiment can be described thus: SENP8 protease inhibitors, SAR follow-up, biochemical, luminescence (AID 504501). It counts as functional.

Experiment [4] addresses Tyrosine-protein kinase Blk (Homo sapiens, UniProt P51451). In kind it is functional.
The target in experiment [5] is BDNF/NT-3 growth factors receptor (Homo sapiens, UniProt Q16620). In kind it is functional.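 Note: NTRK2 measured as one member of a broad kinome-wide kinase profiling panel.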
The target of experiment [6] is Fibroblast growth factor receptor 3 (Homo sapiens, UniProt P22607). It counts as functional.
Chain of Fibroblast growth factor receptor 3 (P22607 whole entry): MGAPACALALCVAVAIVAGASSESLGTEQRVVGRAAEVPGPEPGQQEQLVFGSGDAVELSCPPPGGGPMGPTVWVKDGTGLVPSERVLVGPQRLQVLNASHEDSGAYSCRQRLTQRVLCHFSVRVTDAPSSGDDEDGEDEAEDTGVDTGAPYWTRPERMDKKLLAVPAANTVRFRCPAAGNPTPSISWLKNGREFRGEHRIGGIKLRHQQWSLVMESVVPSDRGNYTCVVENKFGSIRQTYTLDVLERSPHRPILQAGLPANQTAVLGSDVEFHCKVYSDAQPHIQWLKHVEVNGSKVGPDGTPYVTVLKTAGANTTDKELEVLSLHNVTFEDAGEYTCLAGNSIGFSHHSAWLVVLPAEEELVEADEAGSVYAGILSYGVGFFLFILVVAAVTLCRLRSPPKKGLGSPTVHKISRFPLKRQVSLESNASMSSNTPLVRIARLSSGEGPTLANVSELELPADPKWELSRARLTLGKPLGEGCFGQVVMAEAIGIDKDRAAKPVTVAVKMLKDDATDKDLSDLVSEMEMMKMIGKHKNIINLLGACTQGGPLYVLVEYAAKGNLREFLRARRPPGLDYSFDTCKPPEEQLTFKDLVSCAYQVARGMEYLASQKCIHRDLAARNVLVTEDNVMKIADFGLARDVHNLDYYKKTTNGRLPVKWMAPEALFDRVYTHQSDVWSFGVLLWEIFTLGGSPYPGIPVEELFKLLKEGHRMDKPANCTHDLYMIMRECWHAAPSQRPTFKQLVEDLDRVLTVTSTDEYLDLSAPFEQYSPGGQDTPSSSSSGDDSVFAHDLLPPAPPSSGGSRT
For experiment [7], the target named is Mast/stem cell growth factor receptor Kit (Homo sapiens, UniProt P10721). In kind it is functional.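 Note: KIT entry within a kinase panel assay.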
For experiment [8], the target named is Protein kinase C gamma type (Homo sapiens, UniProt P05129). In kind it is functional.
The target of experiment [9] is Rho-associated protein kinase 2 (Homo sapiens, UniProt O75116). It counts as functional.
The target in experiment [10] is Serine/threonine-protein kinase 17A (Homo sapiens, UniProt Q9UEE5). It counts as functional.
Experiment [11] addresses MAP kinase-interacting serine/threonine-protein kinase 2 (Homo sapiens, UniProt Q9HBH9). It counts as functional.
Experiment [12] concerns the target Testis-specific serine/threonine-protein kinase 1 (Homo sapiens, UniProt Q9BXA7). In kind it is functional.
The target of experiment [13] is Homeodomain-interacting protein kinase 2 (Homo sapiens, UniProt Q9H2X6). In kind it is functional.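 Note: measured within a kinome-wide kinase profiling panel, HIPK2 being one panel member.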
Chain of Homeodomain-interacting protein kinase 2 (Q9H2X6 whole entry): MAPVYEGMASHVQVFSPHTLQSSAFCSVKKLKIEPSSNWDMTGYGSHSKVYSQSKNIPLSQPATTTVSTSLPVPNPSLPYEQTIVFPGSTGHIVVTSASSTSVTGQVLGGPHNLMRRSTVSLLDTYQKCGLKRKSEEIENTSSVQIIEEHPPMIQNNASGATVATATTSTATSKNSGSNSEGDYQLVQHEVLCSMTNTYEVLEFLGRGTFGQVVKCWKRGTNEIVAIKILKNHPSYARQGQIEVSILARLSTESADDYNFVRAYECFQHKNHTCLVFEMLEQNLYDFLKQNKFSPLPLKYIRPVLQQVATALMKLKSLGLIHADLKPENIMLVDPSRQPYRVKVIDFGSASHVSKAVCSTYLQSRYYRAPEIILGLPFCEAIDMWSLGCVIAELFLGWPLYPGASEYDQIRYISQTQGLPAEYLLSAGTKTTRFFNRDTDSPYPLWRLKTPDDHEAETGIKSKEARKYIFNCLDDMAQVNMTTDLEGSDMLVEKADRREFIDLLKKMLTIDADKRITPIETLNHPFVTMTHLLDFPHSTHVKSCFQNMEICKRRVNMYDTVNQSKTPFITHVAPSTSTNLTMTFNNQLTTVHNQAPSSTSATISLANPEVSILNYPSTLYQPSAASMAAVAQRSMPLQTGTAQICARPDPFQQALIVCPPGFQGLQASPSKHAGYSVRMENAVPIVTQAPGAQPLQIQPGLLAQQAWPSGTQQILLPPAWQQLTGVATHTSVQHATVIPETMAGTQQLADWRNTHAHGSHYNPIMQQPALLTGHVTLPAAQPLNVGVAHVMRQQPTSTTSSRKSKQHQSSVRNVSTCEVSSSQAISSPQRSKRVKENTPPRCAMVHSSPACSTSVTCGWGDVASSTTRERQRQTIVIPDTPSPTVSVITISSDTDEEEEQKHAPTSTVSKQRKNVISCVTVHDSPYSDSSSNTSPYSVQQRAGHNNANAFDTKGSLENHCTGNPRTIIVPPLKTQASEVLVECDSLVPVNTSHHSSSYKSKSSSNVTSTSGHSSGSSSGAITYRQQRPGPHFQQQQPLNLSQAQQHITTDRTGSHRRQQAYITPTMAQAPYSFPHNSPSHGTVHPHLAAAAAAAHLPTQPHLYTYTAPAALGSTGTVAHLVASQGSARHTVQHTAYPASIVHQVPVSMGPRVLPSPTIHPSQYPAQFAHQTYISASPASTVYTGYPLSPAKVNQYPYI
The target in experiment [14] is Tyrosine-protein kinase receptor TYRO3 (Homo sapiens, UniProt Q06418). It counts as functional.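 Note: TYRO3 value obtained as one member of a kinome-wide profiling panel.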
Chain of Tyrosine-protein kinase receptor TYRO3 (Q06418 whole entry): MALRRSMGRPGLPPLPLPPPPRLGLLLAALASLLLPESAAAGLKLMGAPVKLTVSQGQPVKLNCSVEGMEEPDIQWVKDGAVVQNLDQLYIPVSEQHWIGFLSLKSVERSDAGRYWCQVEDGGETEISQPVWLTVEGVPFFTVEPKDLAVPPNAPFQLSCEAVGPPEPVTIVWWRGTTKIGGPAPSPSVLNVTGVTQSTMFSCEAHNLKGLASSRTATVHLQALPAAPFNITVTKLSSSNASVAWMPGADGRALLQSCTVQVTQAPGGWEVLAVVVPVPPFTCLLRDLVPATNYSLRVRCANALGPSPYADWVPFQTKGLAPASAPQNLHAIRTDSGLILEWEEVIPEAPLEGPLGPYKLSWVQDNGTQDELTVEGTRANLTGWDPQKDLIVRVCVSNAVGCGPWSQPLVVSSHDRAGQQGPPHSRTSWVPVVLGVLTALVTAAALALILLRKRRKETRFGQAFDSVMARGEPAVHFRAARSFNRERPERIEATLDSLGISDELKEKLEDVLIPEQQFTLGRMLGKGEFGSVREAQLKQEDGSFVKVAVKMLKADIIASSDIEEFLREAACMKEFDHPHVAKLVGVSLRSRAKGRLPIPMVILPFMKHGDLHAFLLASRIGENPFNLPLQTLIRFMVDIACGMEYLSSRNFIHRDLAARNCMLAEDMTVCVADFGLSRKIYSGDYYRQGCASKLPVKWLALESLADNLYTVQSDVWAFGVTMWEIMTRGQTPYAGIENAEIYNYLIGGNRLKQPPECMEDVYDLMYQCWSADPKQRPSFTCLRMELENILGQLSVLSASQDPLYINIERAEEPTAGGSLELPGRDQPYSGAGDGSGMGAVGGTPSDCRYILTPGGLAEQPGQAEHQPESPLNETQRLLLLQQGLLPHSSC
Experiment [15] concerns the target Serine/threonine-protein kinase DCLK1 (Homo sapiens, UniProt O15075). In kind it is functional.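 Note: affinity for DCLK1 (listed as DCAMKL1) measured as one member of a kinome-wide kinase profiling panel.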
In experiment [16] the target is Casein kinase I isoform gamma-1 (Homo sapiens, UniProt Q9HCP0). It counts as functional.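 Note: measured as the CSNK1G1 member of a kinome profiling panel.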
Chain of Casein kinase I isoform gamma-1 (Q9HCP0 whole entry, canonical isoform): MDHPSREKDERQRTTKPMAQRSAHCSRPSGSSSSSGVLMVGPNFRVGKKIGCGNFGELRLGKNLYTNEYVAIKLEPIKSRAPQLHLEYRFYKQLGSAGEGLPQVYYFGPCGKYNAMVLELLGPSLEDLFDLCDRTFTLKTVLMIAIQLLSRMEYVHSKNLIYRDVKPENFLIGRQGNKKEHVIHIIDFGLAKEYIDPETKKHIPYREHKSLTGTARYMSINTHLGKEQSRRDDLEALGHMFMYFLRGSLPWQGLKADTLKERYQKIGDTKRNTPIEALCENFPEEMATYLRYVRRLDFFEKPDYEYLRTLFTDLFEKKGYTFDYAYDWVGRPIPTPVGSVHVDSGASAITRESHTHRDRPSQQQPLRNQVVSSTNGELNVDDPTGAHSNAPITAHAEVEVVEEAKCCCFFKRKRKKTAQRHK

Active and inactive are the calls of the source. A value given as a limit tells only on which side of the number the result lay.

The values below come from ChEMBL document CHEMBL1201862, “PubChem BioAssay data set” (2004).

The AC50 is the concentration at which the activity in the assay is half-maximal. By IC50 is commonly meant the concentration that gives 50% inhibition. Usually Ki stands for the equilibrium dissociation constant of an inhibitor or competing ligand from its target.

Chain of Caspase-9 (P55211 1-315 limits assumed): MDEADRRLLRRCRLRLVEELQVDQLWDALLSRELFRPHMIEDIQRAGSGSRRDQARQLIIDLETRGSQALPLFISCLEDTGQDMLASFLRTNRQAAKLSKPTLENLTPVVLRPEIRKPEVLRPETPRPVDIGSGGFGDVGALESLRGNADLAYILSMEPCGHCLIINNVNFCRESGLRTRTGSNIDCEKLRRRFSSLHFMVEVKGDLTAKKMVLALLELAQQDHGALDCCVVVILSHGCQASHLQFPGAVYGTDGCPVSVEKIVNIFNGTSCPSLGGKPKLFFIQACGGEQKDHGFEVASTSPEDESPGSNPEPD
Chain of Caspase-9 (P55211 331-416 limits assumed): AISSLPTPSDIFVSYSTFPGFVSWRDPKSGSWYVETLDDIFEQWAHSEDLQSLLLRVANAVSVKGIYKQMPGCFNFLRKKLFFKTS
Chain of MAP kinase-interacting serine/threonine-protein kinase 2 (Q9HBH9 whole entry): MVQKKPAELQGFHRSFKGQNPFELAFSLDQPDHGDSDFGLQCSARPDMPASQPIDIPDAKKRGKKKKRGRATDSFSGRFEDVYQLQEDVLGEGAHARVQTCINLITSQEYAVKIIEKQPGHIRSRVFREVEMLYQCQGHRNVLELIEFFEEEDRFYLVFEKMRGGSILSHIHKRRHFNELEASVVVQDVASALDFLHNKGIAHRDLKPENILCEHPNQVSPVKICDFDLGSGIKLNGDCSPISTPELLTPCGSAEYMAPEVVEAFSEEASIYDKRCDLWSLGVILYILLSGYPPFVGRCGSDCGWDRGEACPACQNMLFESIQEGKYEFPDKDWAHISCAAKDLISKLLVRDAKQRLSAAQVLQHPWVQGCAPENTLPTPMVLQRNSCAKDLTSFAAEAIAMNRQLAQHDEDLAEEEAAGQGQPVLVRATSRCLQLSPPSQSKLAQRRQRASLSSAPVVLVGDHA

As to `O=C(COC(=O)c1ccc([N+](=O)[O-])s1)Nc1cccc(S(=O)(=O)/N=C2/CCCCCN2)c1`, the half-maximal activity concentration (AC50) on Caspase-9 was 30.2 µM (active). Further, the EC50 in [1] was > 53 µM (inactive).
In the case of `COc1ccc(C(C[N+](=O)[O-])c2c(C)[nH]n(-c3ccccc3)c2=O)cc1` (configuration not stated), the concentration for half-maximal inhibition (IC50) in [2] is 12.3 µM (active); in experiment [3], 28.1 µM (active).
Consider `Oc1c2ccccc2c2c3c(cccc13)N=N2` [SP-600125], for which the Ki in experiment [4] was 0.2 µM (active); in experiment [5], 0.794 µM (active); in [6], 0.158 µM (active); in experiment [7], 1.26 µM (active); in [8] it was 0.316 µM (active); in experiment [9], 3.16 µM (active). Moreover, the Ki in [10] was 0.0398 µM (active); in experiment [11], 0.316 µM (active); in experiment [12] it was > 1.58 µM (inactive); in experiment [13], 0.2 µM (active); in experiment [14], 1 µM (active); in [15], > 10 µM (inactive). Moreover, the Ki in [16] was > 6.31 µM (inactive).
